Source: patent publication US12611453B2, “Method of inducing an HIV-1-specific immune response using a chimpanzee adenovirus vector encoding an hivacat t-cell immunogen and TLR7 agonist” (Gilead Sciences, Inc., priority 2019, dated 2026)

Tests used:
Assay type in all cases: in vitro ADME
[1] = biological target: T1, breast cancer resistance protein (Homo sapiens, UniProt Q9UNQ0); assay: in vitro breast cancer resistance protein substrate assessment
T1 sequence (Q9UNQ0 1-655): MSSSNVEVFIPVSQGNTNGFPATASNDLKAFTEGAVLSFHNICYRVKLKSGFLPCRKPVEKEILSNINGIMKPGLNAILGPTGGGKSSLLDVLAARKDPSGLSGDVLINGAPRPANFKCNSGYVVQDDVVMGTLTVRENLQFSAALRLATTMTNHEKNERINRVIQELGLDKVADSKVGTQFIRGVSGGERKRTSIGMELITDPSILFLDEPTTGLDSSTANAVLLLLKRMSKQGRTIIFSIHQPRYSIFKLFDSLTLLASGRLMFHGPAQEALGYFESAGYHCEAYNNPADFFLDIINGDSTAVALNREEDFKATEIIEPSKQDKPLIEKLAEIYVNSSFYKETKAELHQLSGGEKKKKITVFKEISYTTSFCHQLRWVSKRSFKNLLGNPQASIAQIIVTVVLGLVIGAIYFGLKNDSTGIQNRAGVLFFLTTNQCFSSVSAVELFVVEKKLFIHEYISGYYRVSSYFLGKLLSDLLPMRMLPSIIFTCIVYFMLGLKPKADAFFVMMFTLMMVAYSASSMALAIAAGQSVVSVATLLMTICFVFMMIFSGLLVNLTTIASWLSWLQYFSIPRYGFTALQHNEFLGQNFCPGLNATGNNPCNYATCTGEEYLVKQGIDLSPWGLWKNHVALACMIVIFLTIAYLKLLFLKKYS
Text: (§1) Any ART agents known to inhibit or induce CYP3A, P-glycoprotein, or breast cancer resistance protein are excluded from use in this study during treatment (Period 1). For those participants who may be on a regimen including one of these medications, a regimen switch from one of the prohibited medication to an allowed medication is permitted between the screening and baseline visits. The following agents are excluded from the ART regimen during the study: HIV protease inhibitors (including low-dose ritonavir), cobicistat-containing regimens, elvitegravir, efavirenz, etravirine, and nevirapine.

[2] = biological target: T2, CYP2C8 (Homo sapiens, UniProt P10632); assay: in vitro metabolism by CYP2C8
T2 sequence (P10632 1-490): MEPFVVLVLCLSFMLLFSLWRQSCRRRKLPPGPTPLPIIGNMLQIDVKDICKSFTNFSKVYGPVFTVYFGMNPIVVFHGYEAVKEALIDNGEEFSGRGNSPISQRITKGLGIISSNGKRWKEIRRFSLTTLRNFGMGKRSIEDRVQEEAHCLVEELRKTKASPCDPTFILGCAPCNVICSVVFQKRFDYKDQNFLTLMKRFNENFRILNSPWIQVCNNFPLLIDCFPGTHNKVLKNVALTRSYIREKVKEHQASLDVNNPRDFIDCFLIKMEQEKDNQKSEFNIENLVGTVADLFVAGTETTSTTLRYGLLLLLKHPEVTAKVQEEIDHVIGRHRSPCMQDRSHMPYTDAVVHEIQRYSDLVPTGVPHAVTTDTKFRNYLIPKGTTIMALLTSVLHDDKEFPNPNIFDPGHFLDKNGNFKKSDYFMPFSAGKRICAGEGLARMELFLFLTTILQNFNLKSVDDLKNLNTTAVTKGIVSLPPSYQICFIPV
Text: as §1

[3] = biological target: P-glycoprotein (Homo sapiens, UniProt P08183); assay: in vitro P-glycoprotein substrate assessment
Text: as §1

[4] = biological target: cytochrome P450 (CYP) 3A4 enzyme (CYP3A) (Homo sapiens, UniProt P08684); assay: in vitro metabolism by cytochrome P450 3A4
Text: as §1

[5] = biological target: CYP2D6 (Homo sapiens, UniProt P10635); assay: in vitro metabolism by CYP2D6
Chain of CYP2D6 (P10635 whole entry): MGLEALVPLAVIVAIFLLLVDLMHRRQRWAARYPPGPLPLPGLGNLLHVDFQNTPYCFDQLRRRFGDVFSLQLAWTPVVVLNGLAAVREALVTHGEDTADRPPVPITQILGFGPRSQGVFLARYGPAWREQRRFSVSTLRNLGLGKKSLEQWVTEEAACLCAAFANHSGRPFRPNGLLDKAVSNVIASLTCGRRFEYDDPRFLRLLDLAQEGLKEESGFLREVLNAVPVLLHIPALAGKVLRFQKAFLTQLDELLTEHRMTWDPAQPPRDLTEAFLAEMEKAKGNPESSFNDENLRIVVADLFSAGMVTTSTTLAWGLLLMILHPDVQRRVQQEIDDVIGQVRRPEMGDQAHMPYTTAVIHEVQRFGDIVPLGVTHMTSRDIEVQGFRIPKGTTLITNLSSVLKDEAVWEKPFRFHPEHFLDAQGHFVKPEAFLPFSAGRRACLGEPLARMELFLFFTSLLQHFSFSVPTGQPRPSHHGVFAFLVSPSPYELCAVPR

Chain of cytochrome P450 (CYP) 3A4 enzyme (CYP3A) (P08684 whole entry): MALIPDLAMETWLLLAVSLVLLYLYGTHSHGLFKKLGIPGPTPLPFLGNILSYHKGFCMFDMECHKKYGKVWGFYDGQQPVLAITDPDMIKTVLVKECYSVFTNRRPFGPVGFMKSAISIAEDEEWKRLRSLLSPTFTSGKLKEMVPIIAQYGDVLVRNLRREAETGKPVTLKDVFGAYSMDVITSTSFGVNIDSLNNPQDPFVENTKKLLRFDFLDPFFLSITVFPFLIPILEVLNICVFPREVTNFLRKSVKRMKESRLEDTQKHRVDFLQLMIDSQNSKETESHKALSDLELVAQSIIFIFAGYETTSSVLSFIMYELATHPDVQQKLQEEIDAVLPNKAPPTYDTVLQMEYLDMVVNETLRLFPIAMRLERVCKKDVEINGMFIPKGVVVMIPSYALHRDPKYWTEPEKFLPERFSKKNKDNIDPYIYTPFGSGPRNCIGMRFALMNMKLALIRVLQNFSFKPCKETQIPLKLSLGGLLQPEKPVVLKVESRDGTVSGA
Chain of P-glycoprotein (P08183 whole entry): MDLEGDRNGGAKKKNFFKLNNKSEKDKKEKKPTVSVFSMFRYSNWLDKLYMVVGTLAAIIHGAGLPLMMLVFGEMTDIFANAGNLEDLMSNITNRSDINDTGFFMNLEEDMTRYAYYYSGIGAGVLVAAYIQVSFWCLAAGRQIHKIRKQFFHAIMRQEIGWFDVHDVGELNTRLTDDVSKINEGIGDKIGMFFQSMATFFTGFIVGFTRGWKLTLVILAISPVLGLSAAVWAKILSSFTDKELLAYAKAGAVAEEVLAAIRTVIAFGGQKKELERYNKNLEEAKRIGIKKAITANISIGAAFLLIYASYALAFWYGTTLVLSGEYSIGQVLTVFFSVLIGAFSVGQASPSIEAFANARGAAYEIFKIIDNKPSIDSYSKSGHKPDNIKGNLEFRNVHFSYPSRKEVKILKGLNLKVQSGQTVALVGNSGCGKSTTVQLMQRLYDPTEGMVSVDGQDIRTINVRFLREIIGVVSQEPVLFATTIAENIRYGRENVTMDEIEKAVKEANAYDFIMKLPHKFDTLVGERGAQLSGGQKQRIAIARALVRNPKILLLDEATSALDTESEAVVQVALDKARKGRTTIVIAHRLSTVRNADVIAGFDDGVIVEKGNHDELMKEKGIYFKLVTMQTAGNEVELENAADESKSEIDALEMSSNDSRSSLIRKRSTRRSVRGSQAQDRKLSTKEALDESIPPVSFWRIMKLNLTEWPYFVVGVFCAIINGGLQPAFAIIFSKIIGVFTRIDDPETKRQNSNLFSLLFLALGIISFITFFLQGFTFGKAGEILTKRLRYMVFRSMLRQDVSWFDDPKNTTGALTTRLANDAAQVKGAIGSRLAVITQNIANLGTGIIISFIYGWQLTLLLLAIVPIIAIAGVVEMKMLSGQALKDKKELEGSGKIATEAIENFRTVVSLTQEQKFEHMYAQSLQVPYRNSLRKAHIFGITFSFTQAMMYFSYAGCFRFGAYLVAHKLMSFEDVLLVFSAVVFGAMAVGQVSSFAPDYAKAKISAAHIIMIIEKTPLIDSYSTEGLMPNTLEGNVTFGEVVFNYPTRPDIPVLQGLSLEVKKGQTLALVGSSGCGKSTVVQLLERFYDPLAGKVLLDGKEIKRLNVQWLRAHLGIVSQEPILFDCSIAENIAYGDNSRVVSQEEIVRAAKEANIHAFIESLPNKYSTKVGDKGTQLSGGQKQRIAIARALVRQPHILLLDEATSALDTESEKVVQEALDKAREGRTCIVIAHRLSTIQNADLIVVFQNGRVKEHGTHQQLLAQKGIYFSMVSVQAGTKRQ

- substrate of breast cancer resistance protein [1]: substrate
- metabolism by CYP2C8 (contribution to metabolism) [2]: minor contributions
- substrate of P-glycoprotein [3]: substrate
- metabolism by CYP3A4 (contribution to metabolism) [4]: predominantly metabolized
- metabolism by CYP2D6 (contribution to metabolism) [5]: minor contributions
SMILES: CCCCOc1nc(N)c2c(n1)N(Cc1cccc(CN3CCCC3)c1)CC(=O)N2 [compound of Formula (I)]
